Laboratory results published in patent US11312726B2, “Thienodiazepine derivatives and application thereof” (priority 2017, dated 2022).

Tests used:
[1] = test system: Human prostatic cancer PC-3 cell subcutaneous xenograft tumor; assay: In vivo pharmacodynamics, PC-3 subcutaneous xenograft tumor model; details: 50 mg/kg PO BID × 21 days
Method: In Vivo Pharmacodynamics Study of Compound 32 on Human Prostatic Cancer PC-3 Cell Subcutaneous Xenograft Tumor Model
The formulation method of the test substance was the same as in Table 2, and the animal grouping and the dosage regimen were the same as in Table 3.
(§1) Strain: BALB/c nude mouse
(§2) Week-age and weight: 6-8 weeks of age, 18-22 grams of body weight
(§3) Supplier: Shanghai Sippr-BK laboratory animal Co. Ltd.
(§4) 3. Experiment Methods and Steps
Human prostatic cancer PC-3 cells were cultured in monolayer in vitro, and the culture conditions were F-12K culture medium (supplier: Gibco; article number: 21127-022; manufacturing batch number: 1868870) with 10% fetal bovine serum, 100 U/mL penicillin and 100 μg/mL streptomycin. The culture was performed at 37° C. in 5% CO2. Conventional digestion treatment with pancreatin-EDTA for passage was carried out twice a week. When the cells were in the exponential growth phase, the cells were harvested, counted, and inoculated.
(§5) 3.2 Tumor Cell Inoculation
0.1 mL of 10×10^6 PC-3 cells were subcutaneously inoculated into the right-back of each nude mouse. The grouping and administration was started when the average tumor volume reached 100-150 mm^3.
3.3 Tumor Measurement, Experiment Indices, and Statistical Analysis were the Same as MDA-MB-231 Model

BRD4-BD1 = BRD4-BD1 (Homo sapiens (Human), UniProt O60885); assay: BRD4 biochemical activity test (TR-FRET), BD1; details: read-out: BRD4 Binding (BD1), IC50
From the text: (§6) BRD4 Biochemical Activity Test
(§7) 1) BRD4-BD1 and BRD4-BD2 proteins of BPS Company, polypeptide of ANASPEC Company, and test reagent of PerkinElmer Company were used in the experiments;
(§8) 2) The TR-FRET experimental principle was used in the experiment to screen compounds.
(§9) 3) Relevant control compounds
(§10) 1) Preparation of the Compound Plate:
(§11) Preparation of the compound plate in the experiment was achieved by Echo:
(§12) 2) Preparation of Reaction Reagents:
(§13) Relevant reaction reagents should be prepared on the day of the experiment:
(§14) a) Formulation of 1× assay buffer;
(§15) b) Formulation of 3× component solution for the experiment: […]
(§16) 1. The reagent was taken out and placed on ice to naturally melt for later use;
(§17) 2. “Solution A” (protein solution), “solution B” (polypeptide solution), and “solution C” (test reagent solution) used in the experiment were formulated with the 1× assay buffer, and during the formation of the 3× solution from the components used in the experiment reaction system, the amounts of solutions A, B and C must be enough for the required amounts in the experiment.
(§18) 3) Experimental Operation Steps:
(§19) The experiment plate was a plate that contained a gradient concentration of the compound and a corresponding DMSO solution and was prepared with ECHO before the experiment:
(§20) a) The experiment plate was taken out, and 5 μL/well of “solution A” (protein solution) was added to columns 2-23 of the experiment plate, then 5 μL/well of 1× assay buffer was added to columns 1 and 24 of the experiment plate, and columns 1 and 24 were used as Min control in the experiment system;
(§21) b) Centrifugation at 1000 rpm was carried out for 30 seconds;
(§22) c) The plate was incubated at 23° C. for 20 minutes;
(§23) d) After 20 minutes of incubation, 5 μL/well of “solution B” (polypeptide solution) was added to columns 1-24 of the experiment plate;
(§24) e) Centrifugation at 1000 rpm was carried out for 30 seconds;
(§25) f) The plate was incubated at 23° C. for 20 minutes;
(§26) g) After 20 minutes of incubation, 5 μL/well of “solution C” (test reagent solution) was added to columns 1-24 of the experiment plate;
(§27) h) Centrifugation at 1000 rpm was carried out for 30 seconds;
(§28) i) The plate was incubated at 23° C. for 40 minutes;
(§29) j) The experiment plate was placed on EnVision to read the plate.
(§30) a) The corresponding Max control and Min control of each experiment plate were used to convert to the Z′ value of the experiment plate, and the Z′ value of each plate was ensured to be >0.5;
(§31) b) The IC50 value was calculated from the signal of the control compound by XLFIT5, and ensured to be maintained within 3 times of the average value of historical data.

BRD4-BD2 = BRD4-BD2 (Homo sapiens (Human), UniProt O60885); assay: BRD4 biochemical activity test (TR-FRET), BD2; details: read-out: BRD4 Binding (BD2), IC50
From the text: as §6, §7, §8, §9, §10, §11, §12, §13, §14, §15, §16, §17, §18, §19, §20, §21, §22, §23, §24, §25, §26, §27, §28, §29, §30, §31

[2] = test system: Human breast cancer MDA-MB-231_luc cell subcutaneous xenograft tumor; assay: In vivo pharmacodynamics, MDA-MB-231_luc subcutaneous xenograft tumor model; details: 50 mg/kg PO BID × 21 days
Method: In Vivo Pharmacodynamics Study of Compound 32 on Human Breast Cancer MDA-MB-231_luc Cell Subcutaneous Xenograft Tumor Model
as §1, §2, §3, §4
Human breast cancer MDA-MB-231_luc cells were cultured in monolayer in vitro and the culture conditions were RPMI-1640 culture medium (supplier: Gibco; article number: 22400-089; manufacturing batch number: 4868546) with 10% fetal bovine serum, 100 U/ml penicillin and 100 μg/ml streptomycin. The culture was performed at 37° C. in 5% CO2. Conventional digestion treatment with pancreatin-EDTA for passage was carried out twice a week. When the cells were in the exponential growth phase, the cells were harvested, counted, and inoculated.
as §5
0.2 mL of 10×10^6 MDA-MB-231_luc cells were subcutaneously inoculated into the right-back of each nude mouse (PBS:Matrigel=1:1). The grouping and administration was started when the average tumor volume reached 100-150 mm^3.
3.3 Tumor Measurement and Experiment Indices
The experiment index was to investigate whether tumor growth was inhibited, delayed or cured. Tumor diameter was measured twice a week with vernier calipers. The equation for calculating the tumor volume was V=0.5×a×b^2, wherein a and b represented the major and minor diameters of the tumor, respectively.
The tumor inhibition effect of the compound was evaluated by TGI (%) or relative tumor proliferation rate T/C (%). TGI (%) reflected the tumor growth inhibition rate.
Relative tumor proliferation rate T/C (%) was calculated according to the below equation: T/C %=TRTV/CRTV×100% (TRTV: RTV of the treatment group; CRTV: RTV of the negative control group). The relative tumor volume (RTV) was calculated according to the results of the tumor measurement. The calculation equation was RTV=Vt/V0, where V0 was the average tumor volume measured at the grouping and administration (i.e. d0), and Vt was the average tumor volume at the time of a certain measurement. TRTV and CRTV were obtained from the data on the same day.
At the end of the experiment, the tumor weight would be measured and the Tweight/Cweight percentage would be calculated. Tweight and Cweight represented the tumor weights of the administration group and the medium control group, respectively.
Statistical analysis included mean value and standard error (SEM) of the tumor volume of each group at each time point. […] The comparison between two groups was analyzed by T-test, and the comparison between three or more groups was analyzed by one-way ANOVA.

## Cc1sc2c(c1C)C(c1ccc(Cl)cc1)=N[C@@H](CC(=O)Nc1ccc3c(c1)COC3=O)c1nnc(C)n1-2 [Compound 32]
[1]
  tolerance of the animals: well tolerated
[1]; 21st day
  tumor inhibition effect compared with solvent control: significant tumor inhibition effect
[1]; 21st day after administration
  relative tumor proliferation rate T/C: 44.63%
  tumor growth inhibition rate TGI: 58.4%
BRD4-BD1
  IC50: 66 nM
BRD4-BD2
  IC50: 10 nM
[2]
  change in body weight of the animals: no significant change
  tolerance of the animals: well tolerated
[2]; 21st day after administration
  relative tumor proliferation rate T/C: 52.99%
  tumor growth inhibition rate TGI: 54.85%
